Measurements: US7662748B2, “Formulations comprising triazoles and alkoxylated amines” (Janssen Pharmaceutica, N.V., priority 2002, dated 2010)

What was measured:
[1] = test system: Erisiphe graminis; assay: Fungicidal activity versus powdery mildew on wheat plants; assay type: in vivo, Erisiphe graminis on winter wheat plants, variety Corvus; settings: day 17, mean of 4 replicates
Description: • Test model: Winter wheat plants, variety Corvus, were sprayed with the test solutions till run off. Treated plants were incubated in the glasshouse and dusted with Erisiphe graminis conidia after drying. • Test solutions: • 1) aqueous solutions were prepared by diluting a commercial propiconazole formulation “Tilt® 250 EC” until spray solutions were obtained comprising 8, 16, 20, and 24 ppm of propiconazole. • 2) aqueous solutions were prepared comprising of 40, 80, 160, 320, 640, 1280, and 2560 ppm of N,N′,N′-tris(2-hydroxyethyl)-N-cocoalkyl-1,3-diamino-propane (i.e. ethoduomeen C/13). • 3) to aqueous solutions comprising 8 and 16 ppm of propiconazole an amount of “ethoduomeen C/13” was added yielding test solutions wherein the ratio of propiconazole over “ethoduomeen C/13” is 1/160, 1/80, 1/40, 1/20, 1/10 and 1/5.
The commercial “Tilt® 250 EC” formulation comprises 25% (w/v) of propiconazole dissolved in an aromatic petroleum hydrocarbon liquid mixture.
On day 17 after dusting the wheat plants with Erisiphe graminis the % inhibition of fungal growth was evaluated.

[2] = test system: Erisiphe graminis; assay: as above; assay type: in vivo, Erisiphe graminis on winter wheat plants, variety Corvus; settings: propiconazole 0, ethoduomeen C/13 16 ppm a.i.; day 17; mean of 4 replicates

Compound	% Fungicidal activity versus E. graminis ([1]; propiconazole 0, ethoduomeen C/13 40 ppm a.i.) [%]	% Fungicidal activity versus E. graminis ([1]; propiconazole 0, ethoduomeen C/13 80 ppm a.i.) [%]	% Fungicidal activity versus E. graminis ([1]; propiconazole 0, ethoduomeen C/13 320 ppm a.i.) [%]	% Fungicidal activity versus E. graminis ([1]; propiconazole 0, ethoduomeen C/13 640 ppm a.i.) [%]	% Fungicidal activity versus E. graminis ([1]; propiconazole 0, ethoduomeen C/13 1280 ppm a.i.) [%]	% Fungicidal activity versus E. graminis ([1]; propiconazole 0, ethoduomeen C/13 2560 ppm a.i.) [%]	% Fungicidal activity versus E. graminis [2] [%]	% Fungicidal activity versus E. graminis ([1]; propiconazole 8 ppm a.i., ethoduomeen C/13 0) [%]	% Fungicidal activity versus E. graminis ([1]; propiconazole 16 ppm a.i., ethoduomeen C/13 0) [%]	% Fungicidal activity versus E. graminis ([1]; propiconazole 20 ppm a.i., ethoduomeen C/13 0) [%]	% Fungicidal activity versus E. graminis ([1]; propiconazole 24 ppm a.i., ethoduomeen C/13 0) [%]
N,N′,N′-tris(2-hydroxyethyl)-N-cocoalkyl-1,3-diamino-propane [ethoduomeen C/13]	0	0	0	0	0	0	0	–	–	–	–
CCCC1COC(Cn2cncn2)(c2ccc(Cl)cc2Cl)O1 (centres unmarked) [propiconazole, 1-[[2-(2,4-dichlorophenyl)-4-propyl-1,3-dioxolan-2-yl]methyl]-1H -1,2,4-triazole]	–	–	–	–	–	–	–	25	50	50	80
